GI50 and TGI data for 9 compounds are collected here from PubChem BioAssay (NCI).

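Grown in 96-well plates, cells were treated for 48 hours with each compound at five concentrations. Insufficient inhibition: endpoint recorded as highest concentration tested. At the GI50, growth is halved. TGI marks complete inhibition of growth.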

Among the test systems are 786-0 renal; NCI/ADR-RES ovarian; OVCAR-3 ovarian; LOX IMVI melanoma; HCT-116 colon; SF-295 CNS; NCI-H522 lung; SK-MEL-5 melanoma; MCF7 breast; HOP-62 NSCLC.
Assay in all cases: NCI tumour cell line growth inhibition, 48 h

Turning to `Cc1c(Br)cccc1NC(=O)c1sc2nc3c(cc2c1N)CN(Cc1ccccc1)CC3`, the GI50 with 786-0 renal is 0.256 µM; in the assay on NCI/ADR-RES ovarian, 0.136 µM; with OVCAR-3 ovarian, 0.157 µM; in the assay on LOX IMVI melanoma, 0.336 µM; in the assay with HCT-116 colon it was 0.182 µM; with SF-295 CNS, 0.129 µM. In addition, the GI50 was 0.108 µM in the assay on NCI-H522 lung, 0.201 µM in the assay on SK-MEL-5 melanoma, 0.17 µM with MCF7 breast and 0.204 µM with HOP-62 NSCLC. In addition, the TGI in the assay with 786-0 renal is 7.98 µM; in the assay with NCI/ADR-RES ovarian, 10.5 µM; in the assay on OVCAR-3 ovarian, 0.773 µM; with LOX IMVI melanoma it was over 50 µM; in the assay on HCT-116 colon it was 5.58 µM; with SF-295 CNS, 9.42 µM. The TGI in the assay on NCI-H522 lung was over 50 µM; in the assay on SK-MEL-5 melanoma, 8.18 µM; in the assay with MCF7 breast, over 50 µM; with HOP-62 NSCLC it was 4.44 µM.
On to `CC(C)=CCNc1ncnc2c1ncn2C1OC(COP(=O)(O)O)C(O)C1O` (stereo not given), for which the GI50 was 5.82 µM in the assay on 786-0 renal; 5.85 µM in the assay with NCI/ADR-RES ovarian; 2.13 µM with OVCAR-3 ovarian; 0.581 µM in the assay with LOX IMVI melanoma; 2.07 µM in the assay on HCT-116 colon; 5.8 µM with SF-295 CNS. The GI50 in the assay with NCI-H522 lung is 4.8 µM; in the assay on SK-MEL-5 melanoma it was over 73.7 µM; in the assay with MCF7 breast it was 1.72 µM; in the assay with HOP-62 NSCLC it was 23.5 µM. Also, the TGI was over 79.6 µM in the assay on 786-0 renal; over 100 µM in the assay on NCI/ADR-RES ovarian; 4.41 µM in the assay on OVCAR-3 ovarian; 2.55 µM in the assay with LOX IMVI melanoma; 25.5 µM in the assay on HCT-116 colon; 34 µM with SF-295 CNS. For the same compound, the TGI is 89.4 µM with NCI-H522 lung, over 100 µM in the assay on SK-MEL-5 melanoma, over 91.3 µM with MCF7 breast and over 100 µM with HOP-62 NSCLC.
For the compound `Oc1ccc(Br)cc1CN1CCN(Cc2ccc(Cl)cc2)CC1`, the GI50 is 21.2 µM in the assay with 786-0 renal; 17.2 µM in the assay with NCI/ADR-RES ovarian; 26.3 µM in the assay on OVCAR-3 ovarian; 16.3 µM with LOX IMVI melanoma; 21.1 µM with HCT-116 colon; 18.6 µM in the assay with SF-295 CNS. The GI50 with NCI-H522 lung is 13.3 µM; in the assay with SK-MEL-5 melanoma it was 13 µM; with MCF7 breast, 18.4 µM; with HOP-62 NSCLC it was 36.5 µM. The TGI was 80.9 µM with 786-0 renal; over 100 µM in the assay on NCI/ADR-RES ovarian; over 100 µM with OVCAR-3 ovarian; 36.9 µM with LOX IMVI melanoma; over 100 µM in the assay with HCT-116 colon; over 100 µM in the assay on SF-295 CNS. In addition, the TGI in the assay with NCI-H522 lung was 39.2 µM; in the assay with SK-MEL-5 melanoma it was 26.4 µM; in the assay on MCF7 breast it was 94.3 µM; in the assay on HOP-62 NSCLC, over 100 µM.
As for `COc1ccc(NC(=O)CC(=O)n2nc(-c3ccccc3)c(N=Nc3ccc(C)cc3)c2-c2ccccc2)cc1`, the TGI in the assay with 786-0 renal is 45.6 µM; in the assay on NCI/ADR-RES ovarian, over 61 µM; in the assay on OVCAR-3 ovarian it was 77.2 µM; in the assay with LOX IMVI melanoma, over 100 µM; with HCT-116 colon it was over 71 µM; in the assay on SF-295 CNS it was 52.2 µM. Also, the TGI in the assay on NCI-H522 lung was 48.3 µM; with SK-MEL-5 melanoma it was over 78.1 µM; in the assay on MCF7 breast, over 85.2 µM; with HOP-62 NSCLC, 38.4 µM.
Consider `CC(=O)O/N=C1\C=Cc2c(no[n+]2[O-])C1=O`, for which the TGI with 786-0 renal was 33.5 µM; in the assay on NCI/ADR-RES ovarian it was 68.1 µM; in the assay on OVCAR-3 ovarian it was 30 µM; in the assay on LOX IMVI melanoma, 36.2 µM; in the assay with HCT-116 colon it was 27.6 µM; in the assay with SF-295 CNS, over 100 µM. The TGI in the assay on NCI-H522 lung is 32.8 µM; in the assay with SK-MEL-5 melanoma it was 31.6 µM; with MCF7 breast, 45.4 µM; in the assay on HOP-62 NSCLC, over 100 µM.
For the compound `CC(=O)c1c[nH]c2ccc(-c3ccnc(Nc4ccc(NC(=O)c5cccc(F)c5)c(CN5CCOCC5)c4)n3)cc12`, the GI50 is 0.157 µM in the assay with 786-0 renal; 0.273 µM in the assay on NCI/ADR-RES ovarian; 0.0955 µM in the assay with OVCAR-3 ovarian; 0.0604 µM in the assay on LOX IMVI melanoma; 0.0608 µM with HCT-116 colon; 0.249 µM in the assay on SF-295 CNS. Also, the GI50 was 0.234 µM with NCI-H522 lung, 0.135 µM with SK-MEL-5 melanoma, 0.149 µM in the assay on MCF7 breast and 0.221 µM with HOP-62 NSCLC. Moreover, the TGI in the assay with 786-0 renal was over 26.2 µM; in the assay with NCI/ADR-RES ovarian, 4.35 µM; in the assay on OVCAR-3 ovarian it was 0.932 µM; in the assay on LOX IMVI melanoma it was 0.45 µM; with HCT-116 colon it was 14.7 µM; with SF-295 CNS it was 1.75 µM. Also, the TGI in the assay with NCI-H522 lung was 1.61 µM; with SK-MEL-5 melanoma it was 0.463 µM; in the assay on MCF7 breast it was 1.7 µM; in the assay on HOP-62 NSCLC it was 18.7 µM.
Take `N#CC1=C(N)NC(=S)NC1c1ccc(-c2ccc(-c3nc4ccccc4s3)cc2)o1` (stereo not given): the GI50 is over 50 µM in the assay on 786-0 renal; over 50 µM with NCI/ADR-RES ovarian; over 50 µM in the assay with OVCAR-3 ovarian; 10.6 µM in the assay with LOX IMVI melanoma; 13 µM in the assay on HCT-116 colon; 26.9 µM with SF-295 CNS. Moreover, the GI50 with NCI-H522 lung was 40.3 µM; with SK-MEL-5 melanoma, 14.6 µM; in the assay with MCF7 breast it was 9.71 µM; in the assay on HOP-62 NSCLC, over 50 µM. The TGI in the assay on 786-0 renal was over 50 µM; in the assay on NCI/ADR-RES ovarian, over 50 µM; with OVCAR-3 ovarian, over 50 µM; in the assay with LOX IMVI melanoma it was 22.8 µM; with HCT-116 colon it was 31.8 µM; in the assay with SF-295 CNS, over 50 µM. In addition, the TGI was over 50 µM with NCI-H522 lung, 39.4 µM in the assay on SK-MEL-5 melanoma, over 50 µM in the assay on MCF7 breast and over 50 µM in the assay with HOP-62 NSCLC.
`CC(=O)NC1=NC(=O)/C(=C/c2ccc(Cl)cc2Cl)N1C`: the TGI with 786-0 renal, in the assay with NCI/ADR-RES ovarian, in the assay on OVCAR-3 ovarian, in the assay on LOX IMVI melanoma, in the assay with HCT-116 colon and in the assay with SF-295 CNS was over 100 µM each time. The TGI in the assay with NCI-H522 lung, in the assay with SK-MEL-5 melanoma, with MCF7 breast and in the assay on HOP-62 NSCLC was over 100 µM in each case.
As for `COC1=CC(=O)c2c(O)c3c(c(O)c2C1=O)CC(C)(O)OC3` (stereo not given), the TGI with 786-0 renal was 27.3 µM; with NCI/ADR-RES ovarian it was over 25.9 µM; with OVCAR-3 ovarian, 7.08 µM; with LOX IMVI melanoma, 12.9 µM; in the assay with HCT-116 colon it was 10.6 µM; with SF-295 CNS, 13.9 µM. Also, the TGI in the assay on NCI-H522 lung came to 7.24 µM; with SK-MEL-5 melanoma it was 2.41 µM; with MCF7 breast it was 7.29 µM; in the assay with HOP-62 NSCLC, 12.7 µM.
